In ChEMBL document CHEMBL4828722, “The synthesis and bioactivity of pyrrolo[2,3-d]pyrimidine derivatives as tyrosine kinase inhibitors for NSCLC cells with EGFR mutations” (Eur J Med Chem, 2021):
Activity calls are given as the source filed them. The calls are words filed in the database; no cut-off is given here.

Assays:
[1] = molecular target: Ribosomal protein S6 kinase beta-1 (Homo sapiens) (UniProt P23443); experiment: Inhibition of P70S6K phosphorylation in human HCC827 cells at 0.1 to 5 uM incubated for 2 hrs by immunoblotting analysis; type: cell-based; details: dose 0.1-5 µM
[2] = system: NCI-H1975; experiment: Induction of apoptosis in human NCI-H1975 cells harboring EGFR L858R/T790M mutant assessed as late apoptotic cells at 5 uM measured after 18 hrs by Annexin V-FITC/PI staining based flow cytometry analysis (Rvb= 0.1%); type: functional
[3] = system: NCI-H1975; experiment: Induction of apoptosis in human NCI-H1975 cells harboring EGFR L858R/T790M mutant assessed as dead cells at 0.5 uM measured after 18 hrs by Annexin V-FITC/PI staining based flow cytometry analysis (Rvb= […]); type: functional
[4] = molecular target: MAP kinase p38 (Homo sapiens) (UniProt O15264+Q15759+Q16539+P53778); experiment: Inhibition of p38 MAPK phosphorylation at Thr180/Tyr182 residue in human HBE cells at 5 uM incubated for 2 hrs by immunoblotting analysis; type: cell-based
[5] = system: HCC827; experiment: Induction of cell cycle arrest in human HCC827 cells harboring EGFR del E746-A750 mutant assessed as accumulation of cells in S phase at 1 uM measured after 18 hrs by PI/RNaseA staining based flow cytometry analysis (Rvb= 33.62%); type: functional
[6] = system: NCI-H1975; experiment: Induction of apoptosis in human NCI-H1975 cells harboring EGFR L858R/T790M mutant assessed as live cells at 0.5 uM measured after 18 hrs by Annexin V-FITC/PI staining based flow cytometry analysis (Rvb= 89.4%); type: functional
[7] = system: NCI-H1975; experiment: Induction of cell cycle arrest in human NCI-H1975 cells harboring EGFR L858R/T790M mutant assessed as accumulation of cells in S phase at 5 uM measured after 18 hrs by PI/RNaseA staining based flow cytometry analysis (Rvb= 39.78%); type: functional
[8] = system: HCC827; experiment: Induction of cell cycle arrest in human HCC827 cells harboring EGFR del E746-A750 mutant assessed as accumulation of cells in G2/M phase at 5 uM measured after 18 hrs by PI/RNaseA staining based flow cytometry analysis (Rvb= 16.78%); type: functional
[9] = system: HCC827; experiment: Induction of cell cycle arrest in human HCC827 cells harboring EGFR del E746-A750 mutant assessed as accumulation of cells in G2/M phase at 0.5 uM measured after 18 hrs by PI/RNaseA staining based flow cytometry analysis (Rvb= 16.78%); type: functional
[10] = system: A549; experiment: Cytotoxicity against human A549 cells harboring wild type EGFR assessed as reduction in cell viability measured after 48 hrs by CCK8 assay; type: functional, cell-based; details: A549, 48 h
[11] = system: NCI-H1975; experiment: Induction of cell cycle arrest in human NCI-H1975 cells harboring EGFR L858R/T790M mutant assessed as accumulation of cells in G2/M phase at 1 uM measured after 18 hrs by PI/RNaseA staining based flow cytometry analysis (Rvb= 17.33%); type: functional
[12] = system: HCC827; experiment: Induction of cell cycle arrest in human HCC827 cells harboring EGFR del E746-A750 mutant assessed as accumulation of cells in G0/G1 phase at 5 uM measured after 18 hrs by PI/RNaseA staining based flow cytometry analysis (Rvb= 49.60%); type: functional
[13] = system: HCC827; experiment: Induction of apoptosis in human HCC827 cells harboring EGFR del E746-A750 mutant assessed as late apoptotic cells at 5 uM measured after 18 hrs by Annexin V-FITC/PI staining based flow cytometry analysis (Rvb= 1.2%); type: functional
[14] = system: A549; experiment: Induction of cell cycle arrest in human A549 cells harboring wild type EGFR assessed as accumulation of cells in S phase at 1 uM measured after 18 hrs by PI/RNaseA staining based flow cytometry analysis (Rvb= 33.26%); type: functional
[15] = system: HCC827; experiment: Induction of apoptosis in human HCC827 cells harboring EGFR del E746-A750 mutant assessed as total apoptotic cells at 0.5 uM measured after 18 hrs by Annexin V-FITC/PI staining based flow cytometry analysis (Rvb= 10.8%); type: functional
[16] = system: HCC827; experiment: Induction of apoptosis in human HCC827 cells harboring EGFR del E746-A750 mutant assessed as live cells at 5 uM measured after 18 hrs by Annexin V-FITC/PI staining based flow cytometry analysis (Rvb= 87.5%); type: functional
[17] = system: HCC827; experiment: Induction of apoptosis in human HCC827 cells harboring EGFR del E746-A750 mutant assessed as dead cells at 5 uM measured after 18 hrs by Annexin V-FITC/PI staining based flow cytometry analysis (Rvb= […]); type: functional
[18] = system: A549; experiment: Induction of cell cycle arrest in human A549 cells harboring wild type EGFR assessed as accumulation of cells in G2/M phase at 0.5 uM measured after 18 hrs by PI/RNaseA staining based flow cytometry analysis (Rvb= 8.47%); type: functional
[19] = system: NCI-H1975; experiment: Induction of apoptosis in human NCI-H1975 cells harboring EGFR L858R/T790M mutant assessed as total apoptotic cells at 0.5 uM measured after 18 hrs by Annexin V-FITC/PI staining based flow cytometry analysis (Rvb= 9.2%); type: functional
[20] = system: HCC827; experiment: Induction of apoptosis in human HCC827 cells harboring EGFR del E746-A750 mutant assessed as early apoptotic cells at 0.5 uM measured after 18 hrs by Annexin V-FITC/PI staining based flow cytometry analysis (Rvb= 9.6%); type: functional
[21] = system: A549; experiment: Induction of cell cycle arrest in human A549 cells harboring wild type EGFR assessed as accumulation of cells in G2/M phase at 5 uM measured after 18 hrs by PI/RNaseA staining based flow cytometry analysis (Rvb= 8.47%); type: functional
[22] = system: NCI-H1975; experiment: Induction of apoptosis in human NCI-H1975 cells harboring EGFR L858R/T790M mutant assessed as dead cells at 5 uM measured after 18 hrs by Annexin V-FITC/PI staining based flow cytometry analysis (Rvb= […]); type: functional
[23] = system: NCI-H460; experiment: Cytotoxicity against human NCI-H460 cells harboring wild type EGFR assessed as reduction in cell viability measured after 48 hrs by CCK8 assay; type: functional, cell-based; details: NCI-H460, 48 h
[24] = system: HCC827; experiment: Induction of cell cycle arrest in human HCC827 cells harboring EGFR del E746-A750 mutant assessed as accumulation of cells in S phase at 0.5 uM measured after 18 hrs by PI/RNaseA staining based flow cytometry analysis (Rvb= 33.62%); type: functional
[25] = system: HCC827; experiment: Induction of cell cycle arrest in human HCC827 cells harboring EGFR del E746-A750 mutant assessed as accumulation of cells in G0/G1 phase at 0.5 uM measured after 18 hrs by PI/RNaseA staining based flow cytometry analysis (Rvb= 49.60%); type: functional
[26] = system: A549; experiment: Induction of cell cycle arrest in human A549 cells harboring wild type EGFR assessed as accumulation of cells in S phase at 5 uM measured after 18 hrs by PI/RNaseA staining based flow cytometry analysis (Rvb= 33.26%); type: functional
[27] = system: NCI-H1975; experiment: Induction of cell cycle arrest in human NCI-H1975 cells harboring EGFR L858R/T790M mutant assessed as accumulation of cells in G2/M phase at 0.5 uM measured after 18 hrs by PI/RNaseA staining based flow cytometry analysis (Rvb= 17.33%); type: functional

Sequence of Ribosomal protein S6 kinase beta-1 (Homo sapiens) (P23443 whole entry, looked up): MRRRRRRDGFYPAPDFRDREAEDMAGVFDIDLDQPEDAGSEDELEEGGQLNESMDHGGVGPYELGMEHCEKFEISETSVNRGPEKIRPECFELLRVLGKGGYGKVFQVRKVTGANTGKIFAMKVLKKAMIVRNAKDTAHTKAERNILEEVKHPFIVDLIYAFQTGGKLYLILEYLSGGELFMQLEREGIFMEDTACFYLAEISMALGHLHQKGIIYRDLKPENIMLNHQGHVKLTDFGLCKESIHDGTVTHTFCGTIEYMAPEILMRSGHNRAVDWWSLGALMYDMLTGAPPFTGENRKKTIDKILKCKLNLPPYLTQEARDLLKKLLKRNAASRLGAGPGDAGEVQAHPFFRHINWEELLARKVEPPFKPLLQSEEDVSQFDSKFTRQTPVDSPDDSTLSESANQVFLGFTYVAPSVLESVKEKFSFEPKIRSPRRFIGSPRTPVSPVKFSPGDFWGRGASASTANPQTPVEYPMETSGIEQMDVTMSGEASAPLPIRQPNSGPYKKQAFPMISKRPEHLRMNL

Row | Structure (SMILES) | inhibition [1] | Activity [2] | Activity [3] | inhibition [4] | Activity [5] | Activity [6] | Activity [7] | Activity [8] | Activity [9] | IC50 [10] | Activity [11] | Activity [12] | Activity [13] | Activity [14] | Activity [15] | Activity [16] | Activity [17] | Activity [18] | Activity [19] | Activity [20] | further results
1 | C=CC(=O)Nc1cccc(Oc2nc(Nc3ccc(N4CCN(C)CC4)c([N+](=O)[O-])c3)nc3[nH]ccc23)c1 | Active | 0.3% | 2% | Active | 10.81% | 85.3% | 10.03% | 14.12% | 8.5% | 2.9 µM | 14.81% | 81.52% | 19.4% | 21.21% | 23.8% | 73.7% | 2.5% | 9.99% | 12.7% | 12.4% | Activity [21]: 9.25%; Activity [22]: 1.8%; IC50 [23]: 8.02 µM; Activity [24]: 14.31%; Activity [25]: 77.19%; Activity [26]: 8.2%; Activity [27]: 14.32%
2 | C=CC(=O)Nc1cccc(Oc2nc(Nc3ccc(N4CCN(C)CC4)c(N)c3)nc3[nH]ccc23)c1 | Active | 0.2% | 2.5% | Active | 20.39% | 81.1% | 10.15% | 7.95% | 10.04% | 6.07 µM | 11.6% | 78.12% | 16.6% | 26.07% | 23.6% | 74.3% | 2.1% | 10.49% | 16.4% | 11.1% | Activity [21]: 8.09%; Activity [22]: 2%; IC50 [23]: 26.7 µM; Activity [24]: 15.39%; Activity [25]: 74.57%; Activity [26]: 6.86%; Activity [27]: 16.64%
3 | C=CC(=O)Nc1cccc(Oc2nc(Nc3ccc(N4CCN(C)CC4)c(F)c3)nc3[nH]ccc23)c1 [ABIVERTINIB] | Active | 0.4% | 1.5% | Active | 15.37% | 89% | 9.8% | 8.82% | 9.53% | 1.92 µM | 17.13% | 80.34% | 21.6% | 28.99% | 30.3% | 63% | 1.5% | 10.15% | 9.5% | 12% | Activity [21]: 7.55%; Activity [22]: 2%; IC50 [23]: 6.02 µM; Activity [24]: 15.36%; Activity [25]: 75.11%; Activity [26]: 14.85%; Activity [27]: 17.05%
